# Assay results as given in patent US12570650B2, “6-substituted pyridazine compounds as SMARCA2 and/or SMARCA4 degraders” (Aurigene Oncology Limited, priority 2020, dated 2026).
# Columns and labels:
# Assay type in all cases: cell-based
# SMARCA2 = molecular target: T1, SMARCA2 (Homo sapiens, UniProt P51531); assay: SMARCA2 degradation in VCaP cells by Western blot; conditions: 16 hours
# T1 construct: Determination of SMARCA2 and SMARCA4 Degradation in VCaP Cells by Western Blot; endogenous in cells; host or cells: VCaP (ATCC CRL-2876)
# T1 sequence (P51531 whole entry): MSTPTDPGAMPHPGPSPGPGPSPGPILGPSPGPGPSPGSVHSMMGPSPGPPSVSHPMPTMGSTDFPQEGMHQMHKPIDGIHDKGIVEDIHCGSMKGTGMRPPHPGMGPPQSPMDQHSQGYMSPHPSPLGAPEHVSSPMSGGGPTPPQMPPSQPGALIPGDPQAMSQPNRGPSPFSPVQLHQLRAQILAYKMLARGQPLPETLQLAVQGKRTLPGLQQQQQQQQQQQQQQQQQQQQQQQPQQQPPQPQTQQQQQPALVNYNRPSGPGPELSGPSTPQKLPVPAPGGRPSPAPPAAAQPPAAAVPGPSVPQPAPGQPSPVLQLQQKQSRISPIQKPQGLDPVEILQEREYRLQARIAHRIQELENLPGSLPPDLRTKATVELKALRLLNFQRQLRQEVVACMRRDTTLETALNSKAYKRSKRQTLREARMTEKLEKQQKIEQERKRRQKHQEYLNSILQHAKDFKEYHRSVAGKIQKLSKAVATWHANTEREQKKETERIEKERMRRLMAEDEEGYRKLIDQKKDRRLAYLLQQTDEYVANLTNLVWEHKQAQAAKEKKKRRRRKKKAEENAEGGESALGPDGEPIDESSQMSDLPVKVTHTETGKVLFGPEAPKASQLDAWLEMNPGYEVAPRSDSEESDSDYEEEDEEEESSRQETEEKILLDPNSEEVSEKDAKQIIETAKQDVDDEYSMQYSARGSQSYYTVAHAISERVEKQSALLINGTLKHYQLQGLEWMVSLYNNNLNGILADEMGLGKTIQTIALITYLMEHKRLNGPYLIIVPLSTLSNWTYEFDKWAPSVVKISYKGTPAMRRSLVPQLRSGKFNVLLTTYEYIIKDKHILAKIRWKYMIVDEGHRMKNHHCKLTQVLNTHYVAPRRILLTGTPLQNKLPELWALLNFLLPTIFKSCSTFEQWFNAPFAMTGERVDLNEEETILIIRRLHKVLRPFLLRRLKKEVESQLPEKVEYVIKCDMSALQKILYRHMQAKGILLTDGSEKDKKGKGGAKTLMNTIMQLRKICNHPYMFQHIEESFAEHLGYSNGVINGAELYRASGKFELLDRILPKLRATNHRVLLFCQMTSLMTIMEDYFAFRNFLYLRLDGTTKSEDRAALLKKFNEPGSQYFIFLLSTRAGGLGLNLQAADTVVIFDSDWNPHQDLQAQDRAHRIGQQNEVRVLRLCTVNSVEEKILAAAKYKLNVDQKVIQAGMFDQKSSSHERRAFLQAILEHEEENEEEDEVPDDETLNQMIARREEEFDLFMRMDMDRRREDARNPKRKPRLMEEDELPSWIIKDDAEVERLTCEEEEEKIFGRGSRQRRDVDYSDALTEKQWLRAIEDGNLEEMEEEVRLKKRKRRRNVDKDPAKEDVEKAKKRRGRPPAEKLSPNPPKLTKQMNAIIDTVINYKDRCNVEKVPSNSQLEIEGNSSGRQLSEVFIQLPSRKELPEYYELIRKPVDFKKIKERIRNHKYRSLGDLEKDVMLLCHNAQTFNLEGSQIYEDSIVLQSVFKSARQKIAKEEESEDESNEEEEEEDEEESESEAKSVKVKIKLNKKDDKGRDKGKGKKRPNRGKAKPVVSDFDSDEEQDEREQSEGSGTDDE
# Experimental: Example-P2: Determination of SMARCA2 and SMARCA4 Degradation in VCaP Cells by Western Blot
# VCaP (ATCC CRL-2876) was plated in 6 well plates using complete Dulbecco's Modified Eagle's Medium. On the third day, compounds of present invention were added to cells from 10 mM stocks made in DMSO (Sigma Cat no. D2650). Each concentration of compound was tested with DMSO not exceeding final percentage of 0.3 in the cells. Cells were incubated with the compound for 16 hours followed by harvesting with 1×RIPA lysis buffer (Thermo Fischer, catalogue number #89900) containing protease inhibitor cocktail (Sigma catalogue number #P-8340). Equal amount of protein was loaded on SDS PAGE gel for electrophoresis. Western blot was carried out for detection of either SMARCA2 (Cell signalling technologies, catalogue number #11966) or SMARCA4 antibody (Cell signalling technologies, catalogue number #52251). Beta-Tubulin antibody (Cell signalling technologies, catalogue number #86298) was used as loading control. Percentage of SMARCA2 or SMARCA4 degradation was calculated using formula % Degradation=100−(normalized band intensity in treated sample/normalized band intensity in DMSO sample)*100.
# SMARCA4 = molecular target: T2, SMARCA4 (Homo sapiens, UniProt P51532); assay: SMARCA4 degradation in VCaP cells by Western blot; conditions: 16 hours
# T2 construct: Determination of SMARCA2 and SMARCA4 Degradation in VCaP Cells by Western Blot; endogenous in cells; host or cells: VCaP (ATCC CRL-2876)
# T2 sequence (P51532 whole entry): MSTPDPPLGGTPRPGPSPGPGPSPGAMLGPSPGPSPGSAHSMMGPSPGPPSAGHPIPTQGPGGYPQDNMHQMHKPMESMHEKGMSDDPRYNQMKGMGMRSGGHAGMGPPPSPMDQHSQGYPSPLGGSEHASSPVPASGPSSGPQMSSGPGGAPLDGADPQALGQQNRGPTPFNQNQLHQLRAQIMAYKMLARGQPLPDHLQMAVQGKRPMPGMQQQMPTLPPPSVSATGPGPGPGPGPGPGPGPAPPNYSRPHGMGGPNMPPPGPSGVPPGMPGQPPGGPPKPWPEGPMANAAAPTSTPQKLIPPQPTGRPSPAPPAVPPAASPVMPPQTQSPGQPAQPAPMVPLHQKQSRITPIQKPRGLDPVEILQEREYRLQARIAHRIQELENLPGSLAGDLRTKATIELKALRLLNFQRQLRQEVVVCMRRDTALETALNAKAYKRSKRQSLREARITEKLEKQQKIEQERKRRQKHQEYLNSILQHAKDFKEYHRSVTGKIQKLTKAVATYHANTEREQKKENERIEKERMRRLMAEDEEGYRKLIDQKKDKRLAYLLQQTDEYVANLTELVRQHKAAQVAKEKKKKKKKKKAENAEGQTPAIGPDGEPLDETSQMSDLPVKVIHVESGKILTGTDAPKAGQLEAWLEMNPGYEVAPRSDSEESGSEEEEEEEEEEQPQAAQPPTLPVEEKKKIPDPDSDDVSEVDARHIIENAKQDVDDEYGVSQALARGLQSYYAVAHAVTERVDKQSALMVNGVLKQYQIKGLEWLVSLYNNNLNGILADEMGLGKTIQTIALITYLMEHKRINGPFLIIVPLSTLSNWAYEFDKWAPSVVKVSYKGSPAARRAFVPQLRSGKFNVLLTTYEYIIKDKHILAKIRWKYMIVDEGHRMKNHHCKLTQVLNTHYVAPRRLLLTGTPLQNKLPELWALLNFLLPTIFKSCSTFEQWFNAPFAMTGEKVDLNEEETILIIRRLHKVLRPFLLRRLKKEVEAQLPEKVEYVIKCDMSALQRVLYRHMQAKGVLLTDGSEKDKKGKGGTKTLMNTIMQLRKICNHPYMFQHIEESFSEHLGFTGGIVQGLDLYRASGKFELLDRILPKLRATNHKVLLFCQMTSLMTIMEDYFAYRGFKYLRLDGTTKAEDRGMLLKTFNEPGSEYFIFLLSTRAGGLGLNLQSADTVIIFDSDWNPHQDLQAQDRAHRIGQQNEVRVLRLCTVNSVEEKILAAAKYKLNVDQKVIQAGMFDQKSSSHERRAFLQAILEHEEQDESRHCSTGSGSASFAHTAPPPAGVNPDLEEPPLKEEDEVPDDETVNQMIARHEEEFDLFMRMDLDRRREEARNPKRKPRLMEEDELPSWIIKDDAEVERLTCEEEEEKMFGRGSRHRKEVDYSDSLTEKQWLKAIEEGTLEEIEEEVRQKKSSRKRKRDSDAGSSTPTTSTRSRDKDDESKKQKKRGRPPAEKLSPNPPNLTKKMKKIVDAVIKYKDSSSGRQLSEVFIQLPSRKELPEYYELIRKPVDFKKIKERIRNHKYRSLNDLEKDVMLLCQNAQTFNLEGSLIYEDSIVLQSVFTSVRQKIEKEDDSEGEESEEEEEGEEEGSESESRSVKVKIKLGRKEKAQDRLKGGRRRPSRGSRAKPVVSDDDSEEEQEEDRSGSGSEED
# Experimental: On the third day, compounds of present invention were added to cells from 10 mM stocks made in DMSO (Sigma Cat no. D2650). Each concentration of compound was tested with DMSO not exceeding final percentage of 0.3 in the cells. […] Equal amount of protein was loaded on SDS PAGE gel for electrophoresis. […] Percentage of SMARCA2 or SMARCA4 degradation was calculated using formula % Degradation=100−(normalized band intensity in treated sample/normalized band intensity in DMSO sample)*100.
# SK-MEL-5 cells = assay: Anti proliferative activity, Cell Titer Glo assay, SK-MEL-5; conditions: Homo sapiens, retreatment Day 4, terminated day 8, CellTiter-Glo
# Experimental: Example-P3: Determination of Anti Proliferative Activity of Compounds by Cell Titer Glo®(Promega) Assay
# Cells were seeded into 96-well plates and the plate was incubated in 37 degrees incubator overnight. The next day, compounds were diluted 3-fold to cover 9-point concentration range in DMSO. Intermediate plate dilution was prepared in media followed with compound treatment in cells. Retreatment of cells with compound dilutions was performed on Day 4 and assay was terminated on day 8 for SK-MEL-5 cells using CellTiter-Glo and the plate was kept on orbital shaker for 20 minutes at RT. Assay was terminated on day 6 for RERF-LC-A1 without a compound retreatment. Luminescence signal was recorded on VICTOR^3 instrument. Percent inhibition of proliferation was calculated at each concentration and plotted against the compound concentration. EC50 value was calculated using GraphPad software.
Percent degradation (at 100 nM) SMARCA2 (SMARCA2),Percent degradation (at 100 nM) SMARCA4 (SMARCA4),"EC50 (SK-MEL-5 cells; SK-MEL-5, SK-MEL-5 cells)",Compound,EC50 (SK-MEL-5 cells; SK-MEL-5 cells)
89%,0%,250 to 500 nM,"Cc1ncsc1-c1ccc([C@H](C)NC(=O)[C@@H]2C[C@@H](O)CN2C(=O)[C@@H](NC(=O)CN2CC3(CC(c4ccc(-c5cnnc(-c6ccccc6O)c5)cc4)C3)C2)C(C)(C)C)cc1 [Compound 31, (2S,4R)-4-hydroxy-1-((S)-2-(2-(6-(4-(6-(2-hydroxyphenyl)pyridazin-4-yl)phenyl)-2-azaspiro[3.3]heptan-2-yl)acetamido)-3,3-dimethylbutanoyl)-N-((S)-1-(4-(4-methylthiazol-5-yl)phenyl)ethyl)pyrrolidine-2-carboxamide]",–
95%,0%,< 250 nM,"Cc1ncsc1-c1ccc([C@H](C)NC(=O)[C@@H]2C[C@@H](O)CN2C(=O)[C@@H](NC(=O)C2CCC(c3ccc(-c4cnnc(-c5ccccc5O)c4)cc3)CC2)C(C)(C)C)cc1 (stereo partly drawn) [Compound 18, (2S,4R)-4-hydroxy-1-((S)-2-(4-(4-(6-(2-hydroxyphenyl)pyridazin-4-yl)phenyl)cyclohexane-1-carboxamido)-3,3-dimethylbutanoyl)-N-((S)-1-(4-(4-methylthiazol-5-yl)phenyl)ethyl)pyrrolidine-2-carboxamide]",–
21%,4%,> 500 nM,"Cc1ncsc1-c1ccc([C@H](C)NC(=O)[C@@H]2C[C@@H](O)CN2C(=O)[C@@H](NC(=O)CN2CC(c3ccc(-c4cnnc(-c5ccccc5O)c4)cc3)C2)C(C)(C)C)cc1 [Compound 21, (2S,4R)-4-hydroxy-1-((S)-2-(2-(3-(4-(6-(2-hydroxyphenyl)pyridazin-4-yl)phenyl)azetidin-1-yl)acetamido)-3,3-dimethylbutanoyl)-N-((S)-1-(4-(4-methylthiazol-5-yl)phenyl)ethyl)pyrrolidine-2-carboxamide]",–
17%,0%,> 500 nM,"Cc1ncsc1-c1ccc([C@H](C)NC(=O)[C@@H]2C[C@@H](O)CN2C(=O)[C@@H](NC(=O)CN2CCC(c3ccc(-c4cnnc(-c5cc(F)ccc5O)c4)cc3)CC2)C(C)(C)C)cc1 [Compound 13, (2S,4R)-1-((S)-2-(2-(4-(4-(6-(5-fluoro-2-hydroxyphenyl)pyridazin-4-yl)phenyl)piperidin-1-yl)acetamido)-3,3-dimethylbutanoyl)-4-hydroxy-N-((S)-1-(4-(4-methylthiazol-5-yl)phenyl)ethyl)pyrrolidine-2-carboxamide]",–
15%,0%,> 500 nM,"Cc1ncsc1-c1ccc([C@H](C)NC(=O)[C@@H]2C[C@@H](O)CN2C(=O)[C@@H](NC(=O)CN2CCC(c3cccc(-c4cnnc(-c5ccccc5O)c4)c3)CC2)C(C)(C)C)cc1 [Compound 23, (2S,4R)-4-hydroxy-1-((S)-2-(2-(4-(3-(6-(2-hydroxyphenyl)pyridazin-4-yl)phenyl)piperidin-1-yl)acetamido)-3,3-dimethylbutanoyl)-N-((S)-1-(4-(4-methylthiazol-5-yl)phenyl)ethyl)pyrrolidine-2-carboxamide]",–
–,–,> 500 nM,"Cc1ncsc1-c1ccc([C@H](C)NC(=O)[C@@H]2C[C@@H](O)CN2C(=O)[C@@H](NC(=O)CC2CCC(c3ccc(-c4cnnc(-c5ccccc5O)c4)cc3)CC2)C(C)(C)C)cc1 (stereo partly drawn) [Compound 17, (2S,4R)-4-hydroxy-1-((S)-2-(2-(4-(4-(6-(2-hydroxyphenyl)pyridazin-4-yl)phenyl)cyclohexyl)acetamido)-3,3-dimethylbutanoyl)-N-((S)-1-(4-(4-methylthiazol-5-yl)phenyl)ethyl)pyrrolidine-2-carboxamide]",–
–,–,> 500 nM,"Cc1ncsc1-c1ccc([C@H](C)NC(=O)[C@@H]2C[C@@H](O)CN2C(=O)[C@@H](NC(=O)CN2CCC(c3ccc(-c4cnnc(-c5ccccc5O)c4)cn3)CC2)C(C)(C)C)cc1 [Compound 27, (2S,4R)-4-hydroxy-1-((S)-2-(2-(4-(5-(6-(2-hydroxyphenyl)pyridazin-4-yl)pyridin-2-yl)piperidin-1-yl)acetamido)-3,3-dimethylbutanoyl)-N-((S)-1-(4-(4-methylthiazol-5-yl)phenyl)ethyl)pyrrolidine-2-carboxamide]",–
–,–,> 500 nM,"Cc1ncsc1-c1ccc([C@H](C)NC(=O)[C@@H]2C[C@@H](O)CN2C(=O)[C@@H](NC(=O)CN2CCC(c3ccc(-c4cnnc(-c5ccccc5O)c4)cc3)C2)C(C)(C)C)cc1 (stereo partly drawn) [Compound 22, (2S,4R)-4-hydroxy-1-((2S)-2-(2-(3-(4-(6-(2-hydroxyphenyl)pyridazin-4-yl)phenyl)pyrrolidin-1-yl)acetamido)-3,3-dimethylbutanoyl)-N-((S)-1-(4-(4-methylthiazol-5-yl)phenyl)ethyl)pyrrolidine-2-carboxamide]",–

# The remaining lines, values behind:
Compound,Percent degradation (at 100 nM) SMARCA2 (SMARCA2),Percent degradation (at 100 nM) SMARCA4 (SMARCA4),"EC50 (SK-MEL-5 cells; SK-MEL-5, SK-MEL-5 cells)",EC50 (SK-MEL-5 cells; SK-MEL-5 cells)
"Cc1ncsc1-c1ccc([C@H](C)NC(=O)[C@@H]2C[C@@H](O)CN2C(=O)[C@@H](NC(=O)CN2C3CCC2CC(c2ccc(-c4cnnc(-c5ccccc5O)c4)cc2)C3)C(C)(C)C)cc1 (stereo partly drawn) [Compound 25, (2S,4R)-4-hydroxy-1-((2S)-2-(2-(3-(4-(6-(2-hydroxyphenyl)pyridazin-4-yl)phenyl)-8-azabicyclo[3.2.1]octan-8-yl)acetamido)-3,3-dimethylbutanoyl)-N-((S)-1-(4-(4-methylthiazol-5-yl)phenyl)ethyl)pyrrolidine-2-carboxamide]",75%,0%,250 to 500 nM,–
"Cc1ncsc1-c1ccc([C@H](C)NC(=O)[C@@H]2C[C@@H](O)CN2C(=O)[C@@H](NC(=O)CN2CCC(O)(c3ccc(-c4cnnc(-c5ccccc5O)c4)cc3)CC2)C(C)(C)C)cc1 [Compound 32, (2S,4R)-4-hydroxy-1-((S)-2-(2-(4-hydroxy-4-(4-(6-(2-hydroxyphenyl)pyridazin-4-yl)phenyl)piperidin-1-yl)acetamido)-3,3-dimethylbutanoyl)-N-((S)-1-(4-(4-methylthiazol-5-yl)phenyl)ethyl)pyrrolidine-2-carboxamide]",57%,0%,> 500 nM,–
"Cc1ncsc1-c1ccc([C@H](C)NC(=O)[C@@H]2C[C@@H](O)CN2C(=O)[C@@H](NC(=O)C2CCN(c3ccc(-c4cnnc(-c5ccccc5O)c4)cc3)CC2)C(C)(C)C)cc1 [Compound 16, N-((S)-1-((2S,4R)-4-hydroxy-2-(((S)-1-(4-(4-methylthiazol-5-yl)phenyl)ethyl)carbamoyl)pyrrolidin-1-yl)-3,3-dimethyl-1-oxobutan-2-yl)-1-(4-(6-(2-hydroxyphenyl)pyridazin-4-yl)phenyl)piperidine-4-carboxamide]",76%,0%,< 250 nM,–
"Cc1ncsc1-c1ccc([C@H](C)NC(=O)[C@@H]2C[C@@H](O)CN2C(=O)[C@@H](NC(=O)CN2CCC(n3cc(-c4cnnc(-c5ccccc5O)c4)cn3)CC2)C(C)(C)C)cc1 [Compound 33, (2S,4R)-4-hydroxy-1-((S)-2-(2-(4-(4-(6-(2-hydroxyphenyl)pyridazin-4-yl)-1H-pyrazol-1-yl)piperidin-1-yl)acetamido)-3,3-dimethylbutanoyl)-N-((S)-1-(4-(4-methylthiazol-5-yl)phenyl)ethyl)pyrrolidine-2-carboxamide]",69%,0%,–,–
"Cc1ncsc1-c1ccc([C@H](C)NC(=O)[C@@H]2C[C@@H](O)CN2C(=O)[C@@H](NC(=O)C(C)N2CCN(c3ccc(-c4cnnc(-c5ccccc5O)c4)cc3)CC2)C(C)(C)C)cc1 (single isomer, unassigned) [Compound 29]",40%,0%,–,–
"Cc1ncsc1-c1ccc([C@H](C)NC(=O)[C@@H]2C[C@@H](O)CN2C(=O)[C@@H](NC(=O)CN2CCC(Nc3ccc(-c4cnnc(-c5ccccc5O)c4)cc3)CC2)C(C)(C)C)cc1 [Compound 45, (2S,4R)-4-hydroxy-1-((S)-2-(2-(4-((4-(6-(2-hydroxyphenyl)pyridazin-4-yl)phenyl)amino)piperidin-1-yl)acetamido)-3,3-dimethylbutanoyl)-N-((S)-1-(4-(4-methylthiazol-5-yl)phenyl)ethyl)pyrrolidine-2-carboxamide]",94%,–,–,< 250 nM
